ChEMBL document CHEMBL1201862, “PubChem BioAssay data set” (2004)
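A five-concentration, 48-hour dose response in 96-well plates underlies each endpoint, interpolated linearly between surrounding concentrations. The concentration for 50% growth inhibition is given as GI50.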 Activity calls are given as the source filed them. Rule as the data show it: active = GI50 up to about 1.1 µM and inactive = higher.

What was measured:
Experiment in all cases: inhibition of tumour cell growth, NCI panel, 48 h
786-0 = system: 786-0
A498 = system: A498
A549 = system: A549
ACHN = system: ACHN
BT-549 = system: BT-549
CAKI-1 = system: CAKI-1
CCRF-CEM = system: CCRF-CEM
COLO 205 = system: COLO 205
DU-145 = system: DU-145
EKVX = system: EKVX
HCC 2998 = system: HCC 2998
HCT-116 = system: HCT-116
HCT-15 = system: HCT-15
HL-60 = system: HL-60
HOP-62 = system: HOP-62
HT-29 = system: HT-29
Hs-578T = system: Hs-578T
IGROV-1 = system: IGROV-1
K562 = system: K562
KM12 = system: KM12
LOX IMVI = system: LOX IMVI
M14 = system: M14
MCF7 = system: MCF7
MDA-MB-231 = system: MDA-MB-231
MDA-MB-435 = system: MDA-MB-435
MDA-N = system: MDA-N
MOLT-4 = system: MOLT-4
Malme-3M = system: Malme-3M
NCI-H226 = system: NCI-H226
NCI-H23 = system: NCI-H23
NCI-H460 = system: NCI-H460
NCI-H522 = system: NCI-H522
NCI/ADR-RES = system: NCI/ADR-RES
OVCAR-3 = system: OVCAR-3
OVCAR-4 = system: OVCAR-4
OVCAR-5 = system: OVCAR-5
OVCAR-8 = system: OVCAR-8
PC-3 = system: PC-3
RPMI-8226 = system: RPMI-8226
SF-268 = system: SF-268
SF-295 = system: SF-295
SF-539 = system: SF-539
SK-MEL-28 = system: SK-MEL-28
SK-MEL-2 = system: SK-MEL-2
SK-MEL-5 = system: SK-MEL-5
SK-OV-3 = system: SK-OV-3
SN12C = system: SN12C
SNB-19 = system: SNB-19
SNB-75 = system: SNB-75
SR = system: SR
SW-620 = system: SW-620
T47D = system: T47D
TK-10 = system: TK-10
U-251 = system: U-251
UACC-62 = system: UACC-62
UO-31 = system: UO-31
RXF 393 = system: RXF 393
UACC-257 = system: UACC-257

O=C(c1ccccc1Br)C(F)(F)F
GI50 (786-0): > 100 µM (inactive) | GI50 (A498): > 100 µM (inactive) | GI50 (A549): > 100 µM (inactive) | GI50 (ACHN): > 100 µM (inactive) | GI50 (BT-549): > 100 µM (inactive) | GI50 (CAKI-1): > 100 µM (inactive) | GI50 (CCRF-CEM): > 100 µM (inactive) | GI50 (COLO 205): 88.9 µM (inactive) | GI50 (DU-145): > 100 µM (inactive) | GI50 (EKVX): > 100 µM (inactive) | GI50 (HCC 2998): > 100 µM (inactive) | GI50 (HCT-116): > 100 µM (inactive) | GI50 (HCT-15): > 100 µM | GI50 (HL-60): > 100 µM (inactive) | GI50 (HOP-62): > 100 µM (inactive) | GI50 (HT-29): > 100 µM (inactive) | GI50 (Hs-578T): > 100 µM (inactive) | GI50 (IGROV-1): > 100 µM (inactive) | GI50 (K562): > 100 µM (inactive) | GI50 (KM12): > 100 µM (inactive) | GI50 (LOX IMVI): > 100 µM (inactive) | GI50 (M14): > 100 µM (inactive) | GI50 (MCF7): > 100 µM (inactive) | GI50 (MDA-MB-231): > 100 µM (inactive) | GI50 (MDA-MB-435): > 100 µM (inactive) | GI50 (MDA-N): > 100 µM (inactive) | GI50 (MOLT-4): > 100 µM (inactive) | GI50 (Malme-3M): > 100 µM (inactive) | GI50 (NCI-H226): > 100 µM (inactive) | GI50 (NCI-H23): > 100 µM (inactive) | GI50 (NCI-H460): > 100 µM (inactive) | GI50 (NCI-H522): > 100 µM (inactive) | GI50 (NCI/ADR-RES): > 100 µM (inactive) | GI50 (OVCAR-3): > 100 µM (inactive) | GI50 (OVCAR-4): > 100 µM (inactive) | GI50 (OVCAR-5): > 100 µM (inactive) | GI50 (OVCAR-8): > 100 µM (inactive) | GI50 (PC-3): > 100 µM (inactive) | GI50 (RPMI-8226): > 100 µM (inactive) | GI50 (SF-268): > 100 µM (inactive) | GI50 (SF-295): > 100 µM (inactive) | GI50 (SF-539): > 100 µM (inactive) | GI50 (SK-MEL-28): > 100 µM (inactive) | GI50 (SK-MEL-2): > 10 µM (inactive) | GI50 (SK-MEL-5): > 100 µM (inactive) | GI50 (SK-OV-3): > 100 µM (inactive) | GI50 (SN12C): > 100 µM (inactive) | GI50 (SNB-19): > 100 µM (inactive) | GI50 (SNB-75): > 100 µM (inactive) | GI50 (SR): > 100 µM (inactive) | GI50 (SW-620): > 100 µM (inactive) | GI50 (T47D): 48.5 µM (inactive) | GI50 (TK-10): > 100 µM (inactive) | GI50 (U-251): > 100 µM (inactive) | GI50 (UACC-62): > 100 µM (inactive) | GI50 (UO-31): > 100 µM (inactive)

Nc1ccc(Cc2ccc(/N=C\c3ccc(OCc4cccc(COc5ccc(/C=N\c6ccc(Cc7ccc(N)cc7)cc6)cc5)n4)cc3)cc2)cc1
GI50 (786-0): 65.9 µM (inactive) | GI50 (A498): 61.5 µM (inactive) | GI50 (A549): > 100 µM (inactive) | GI50 (ACHN): > 100 µM (inactive) | GI50 (BT-549): > 100 µM (inactive) | GI50 (CAKI-1): > 100 µM (inactive) | GI50 (CCRF-CEM): > 100 µM (inactive) | GI50 (COLO 205): > 100 µM (inactive) | GI50 (DU-145): > 100 µM (inactive) | GI50 (EKVX): 94.6 µM (inactive) | GI50 (HCC 2998): > 100 µM (inactive) | GI50 (HCT-116): > 100 µM (inactive) | GI50 (HCT-15): > 100 µM | GI50 (HL-60): > 100 µM (inactive) | GI50 (HOP-62): 37.5 µM (inactive) | GI50 (HT-29): > 100 µM (inactive) | GI50 (Hs-578T): 65.6 µM (inactive) | GI50 (IGROV-1): > 100 µM (inactive) | GI50 (K562): > 100 µM (inactive) | GI50 (KM12): > 100 µM (inactive) | GI50 (LOX IMVI): > 100 µM (inactive) | GI50 (M14): > 100 µM (inactive) | GI50 (MCF7): > 100 µM (inactive) | GI50 (MDA-MB-231): 27 µM (inactive) | GI50 (MDA-MB-435): > 100 µM (inactive) | GI50 (MDA-N): > 100 µM (inactive) | GI50 (MOLT-4): > 100 µM (inactive) | GI50 (Malme-3M): 63.1 µM (inactive) | GI50 (NCI-H226): > 100 µM (inactive) | GI50 (NCI-H23): 99.1 µM (inactive) | GI50 (NCI-H460): > 100 µM (inactive) | GI50 (NCI-H522): > 100 µM (inactive) | GI50 (NCI/ADR-RES): > 100 µM (inactive) | GI50 (OVCAR-3): 72.3 µM (inactive) | GI50 (OVCAR-4): 85.1 µM (inactive) | GI50 (OVCAR-5): > 100 µM (inactive) | GI50 (OVCAR-8): 62.8 µM (inactive) | GI50 (PC-3): > 100 µM (inactive) | GI50 (RPMI-8226): > 100 µM (inactive) | GI50 (RXF 393): 23.1 µM (inactive) | GI50 (SF-268): 45.2 µM (inactive) | GI50 (SF-295): 50.1 µM (inactive) | GI50 (SF-539): 4.29 µM (inactive) | GI50 (SK-MEL-28): > 100 µM (inactive) | GI50 (SK-MEL-2): 39.2 µM (inactive) | GI50 (SK-MEL-5): > 100 µM (inactive) | GI50 (SN12C): > 100 µM (inactive) | GI50 (SNB-19): 41.7 µM (inactive) | GI50 (SNB-75): 13.2 µM (inactive) | GI50 (SR): > 100 µM (inactive) | GI50 (SW-620): > 100 µM (inactive) | GI50 (T47D): 68.9 µM (inactive) | GI50 (TK-10): 81.3 µM (inactive) | GI50 (U-251): 41 µM (inactive) | GI50 (UACC-257): > 100 µM (inactive) | GI50 (UACC-62): > 100 µM (inactive) | GI50 (UO-31): > 100 µM (inactive)

COC(=O)NNC(c1ccc(Cl)cc1)c1ccc(Cl)cc1
GI50 (786-0): 17.1 µM (inactive) | GI50 (A498): 18.6 µM (inactive) | GI50 (A549): 15.3 µM (inactive) | GI50 (BT-549): 16.1 µM (inactive) | GI50 (CAKI-1): 16.1 µM (inactive) | GI50 (CCRF-CEM): 17.1 µM (inactive) | GI50 (COLO 205): 18.1 µM (inactive) | GI50 (DU-145): 31 µM (inactive) | GI50 (EKVX): 18.8 µM (inactive) | GI50 (HCC 2998): 13.5 µM (inactive) | GI50 (HCT-116): 15.7 µM (inactive) | GI50 (HCT-15): 15.2 µM | GI50 (HL-60): 21 µM (inactive) | GI50 (HT-29): 16.5 µM (inactive) | GI50 (Hs-578T): 20.4 µM (inactive) | GI50 (IGROV-1): 16.4 µM (inactive) | GI50 (K562): 22.2 µM (inactive) | GI50 (KM12): 17 µM (inactive) | GI50 (LOX IMVI): 16.4 µM (inactive) | GI50 (M14): 15.7 µM (inactive) | GI50 (MCF7): 23.7 µM (inactive) | GI50 (MDA-MB-231): 12.2 µM (inactive) | GI50 (MDA-MB-435): 31.8 µM (inactive) | GI50 (MDA-N): 22.3 µM (inactive) | GI50 (MOLT-4): 16.5 µM (inactive) | GI50 (Malme-3M): 20.6 µM (inactive) | GI50 (NCI-H226): 17.3 µM (inactive) | GI50 (NCI-H23): 16.3 µM (inactive) | GI50 (NCI-H460): 16.5 µM (inactive) | GI50 (NCI-H522): 19.6 µM (inactive) | GI50 (NCI/ADR-RES): 18.2 µM (inactive) | GI50 (OVCAR-3): 15.2 µM (inactive) | GI50 (OVCAR-4): 20.8 µM (inactive) | GI50 (OVCAR-5): 15.7 µM (inactive) | GI50 (OVCAR-8): 19.1 µM (inactive) | GI50 (PC-3): 12.2 µM (inactive) | GI50 (RPMI-8226): 20.9 µM (inactive) | GI50 (RXF 393): 10.5 µM (inactive) | GI50 (SF-268): 21.8 µM (inactive) | GI50 (SF-539): 20.7 µM (inactive) | GI50 (SK-MEL-28): 18.7 µM (inactive) | GI50 (SK-MEL-2): 12.4 µM (inactive) | GI50 (SK-MEL-5): 16.5 µM (inactive) | GI50 (SK-OV-3): 23.7 µM (inactive) | GI50 (SN12C): 19.5 µM (inactive) | GI50 (SNB-19): 17.3 µM (inactive) | GI50 (SNB-75): 26.2 µM (inactive) | GI50 (SR): 20.2 µM (inactive) | GI50 (SW-620): 25.1 µM (inactive) | GI50 (T47D): 19.9 µM (inactive) | GI50 (TK-10): 17.6 µM (inactive) | GI50 (U-251): 19.5 µM (inactive) | GI50 (UACC-257): 18.2 µM (inactive) | GI50 (UACC-62): 16 µM (inactive) | GI50 (UO-31): 12.5 µM (inactive)
